Laboratory results from patent publication US12091385B2, “Pyridinylcyanoguanidine derivative and use thereof” (Rushi Biotech (Hangzhou) Co., Ltd, priority 2021, dated 2024).

What was measured:
Assay type in all cases: cell-based
[1] = test system: Human lung adenocarcinoma cell A549; assay: CCK-8 cell proliferation assay, A549; conditions: A549 cells, 72 hrs with drug, CCK-8, OD 450 nm
Description: (§1) The effect of samples on the proliferation of human tumor cells in vitro was determined by CCK-8 cell proliferation assay.
(§2) The cells were assayed through a method including the following steps: • 1) The cells were digested, counted, and prepared into a cell suspension in a corresponding culture medium (Table 1) (5×10^4 cells/ml for CFPAC-1 and RPMI 8226, and 3.5×10^4 cells/ml for rest cells). The cell suspension was added to each well of a 96-well plate in 100 μl/well. • 2) Then the 96-well plate was incubated for 24 hrs in an incubator at 37° C. and 5% CO2. • 3) The drug was diluted with the culture medium to the required working concentration. 100 μl of the corresponding drug containing medium was added to each well.

[2] = test system: Human hepatoma cell HepG2; assay: CCK-8 cell proliferation assay, HepG2; conditions: HepG2 cells, 72 hrs with drug, CCK-8, OD 450 nm
Description: as §1, §2

[3] = test system: Human esophageal cancer cell TE-1; assay: CCK-8 cell proliferation assay, TE-1; conditions: TE-1 cells, 72 hrs with drug, CCK-8, OD 450 nm
Description: as §1, §2

[4] = test system: Human gastric cancer cell MKN45; assay: CCK-8 cell proliferation assay, MKN45; conditions: MKN-45 cells, 72 hrs with drug, CCK-8, OD 450 nm
Description: as §1, §2

[5] = test system: Human colon cancer cell HCT-116; assay: CCK-8 cell proliferation assay, HCT-116; conditions: HCT116 cells, 72 hrs with drug, CCK-8, OD 450 nm
Description: as §1, §2

[6] = test system: Human multiple myeloma cell RPMI 8226; assay: CCK-8 cell proliferation assay, RPMI 8226; conditions: RPMI8226 cells, 72 hrs with drug, CCK-8, OD 450 nm
Description: as §1, §2

[7] = test system: Human pancreatic cancer cell CFPAC-1; assay: CCK-8 cell proliferation assay, CFPAC-1; conditions: CFPAC-1 cells, 72 hrs with drug, CCK-8, OD 450 nm
Description: as §1, §2

Compound | IC50 [1] [nM] | IC50 [2] [nM] | IC50 [3] [nM] | IC50 [4] [nM] | IC50 [5] [nM] | IC50 [6] [nM] | IC50 [7] [nM]
N#CN=C(NCCCCCN1CCN(C(=O)c2ccccc2)CC1)Nc1cccnc1 [BSS-PC019, 2-cyano-1-(5-((1-benzoyl)piperazine-4-yl)pentyl)-3-(3-pyridinyl)guanidine] | 71 | 83 | 64 | 52 | 73 | 38 | 46
N#CN=C(NCCCCCC1CCN(C(=O)c2sccc2F)C1)Nc1ccncc1 (centres unmarked) [BSS-PC050, 2-cyano-1-(5-(1-(3-fluoro-2-thienylformyl)pyrrolidine-3-yl)pentyl)-3-(4-pyridinyl)guanidine] | 39 | 68 | 52 | 33 | 87 | 32 | 41
N#CN=C(NCCCCCC1CCN(C(=O)C2CCCO2)C1)Nc1ccncc1 (centres unmarked) [BSS-PC036, 2-cyano-1-(5-(1-(2-tetrahydrofuranformyl)pyrrolidine-3-yl)pentyl)-3-(4-pyridinyl)guanidine] | 28 | 90 | 72 | 36 | 58 | 25 | 39
N#CN=C(NCCCCCCC1CCN(C(=O)c2ccco2)C1)Nc1cc(F)nc(F)c1 (centres unmarked) [BSS-PC076] | 33 | 42 | 46 | 45 | 53 | 26 | 29
N#CN=C(NCCCCCC1CCN(C(=O)c2ccc[nH]2)C1)Nc1ccncc1 (centres unmarked) [BSS-PC033, 2-cyano-1-(5-(1-(2-pyrrolylformyl)pyrrolidine-3-yl)pentyl)-3-(4-pyridinyl)guanidine] | 51 | 76 | 67 | 33 | 42 | 17 | 29
N#CN=C(NCCCCCCC1CCN(C(=O)c2cc3ccccc3o2)C1)Nc1ccncc1 (centres unmarked) [BSS-PC072, 2-cyano-1-(6-(1-(2-benzofurylformyl)pyrrolidine-3-yl)hexyl)-3-(4-pyridinyl)guanidine] | 64 | 98 | 92 | 43 | 92 | 41 | 47
N#CN=C(NCCCCCN1CCN(C(=O)C2CCCO2)CC1)Nc1ccncc1 (centres unmarked) [BSS-PC011] | 40 | 52 | 47 | 61 | 49 | 42 | 39
N#CN=C(NCCCCCCC1CCN(C(=O)c2ccccc2)C1)Nc1ccncc1 (centres unmarked) [BSS-PC054, 2-cyano-1-(6-((1-benzoyl)pyrrolidine-3-yl)hexyl)-3-(4-pyridinyl)guanidine] | 33 | 57 | 46 | 49 | 52 | 30 | 39
N#CN=C(NCCCCCC1CCN(C(=O)c2ccccc2)C1)Nc1cccnc1 (centres unmarked) [BSS-PC044, 2-cyano-1-(5-((1-benzoyl)pyrrolidine-3-yl)pentyl)-3-(3-pyridinyl)guanidine] | 41 | 42 | 34 | 53 | 40 | 20 | 38
N#CN=C(NCCCCCC1CCN(C(=O)C2CCCN2)C1)Nc1ccncc1 (centres unmarked) [BSS-PC035, 2-cyano-1-(5-(1-(2-pyrrolidinylformyl)pyrrolidine-3-yl)pentyl)-3-(4-pyridinyl)guanidine] | 32 | 86 | 79 | 41 | 33 | 27 | 16
N#CN=C(NCCCCCC1CCN(C(=O)c2ccco2)C1)Nc1cccnc1 (centres unmarked) [BSS-PC051] | 51 | 42 | 40 | 31 | 39 | 27 | 33
